# Measured values: publication PMC6934184, “Selective DNA-PKcs inhibition extends the therapeutic index of localized radiotherapy and chemotherapy” (The Journal of Clinical Investigation, 2019)
# Molecular target: T1, MET D1228H (Homo sapiens, UniProt P08581, D1228H)
# T1 construct: purchased Thermo Fisher Scientific (Life Technologies) SelectScreen
# Experiment: SelectScreen LanthaScreen
# Format: binding
# Details: 1 µM
# Procedure, shortened: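 Percent values come from Thermo SelectScreen profiling of NU5455, combining activity and binding assays. CSF1R was run in Z'LYTE format at Km app ATP, and CAMK1 in Adapta format with ATP listed at 10.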
# T1 sequence (P08581 25-1390 D1228H): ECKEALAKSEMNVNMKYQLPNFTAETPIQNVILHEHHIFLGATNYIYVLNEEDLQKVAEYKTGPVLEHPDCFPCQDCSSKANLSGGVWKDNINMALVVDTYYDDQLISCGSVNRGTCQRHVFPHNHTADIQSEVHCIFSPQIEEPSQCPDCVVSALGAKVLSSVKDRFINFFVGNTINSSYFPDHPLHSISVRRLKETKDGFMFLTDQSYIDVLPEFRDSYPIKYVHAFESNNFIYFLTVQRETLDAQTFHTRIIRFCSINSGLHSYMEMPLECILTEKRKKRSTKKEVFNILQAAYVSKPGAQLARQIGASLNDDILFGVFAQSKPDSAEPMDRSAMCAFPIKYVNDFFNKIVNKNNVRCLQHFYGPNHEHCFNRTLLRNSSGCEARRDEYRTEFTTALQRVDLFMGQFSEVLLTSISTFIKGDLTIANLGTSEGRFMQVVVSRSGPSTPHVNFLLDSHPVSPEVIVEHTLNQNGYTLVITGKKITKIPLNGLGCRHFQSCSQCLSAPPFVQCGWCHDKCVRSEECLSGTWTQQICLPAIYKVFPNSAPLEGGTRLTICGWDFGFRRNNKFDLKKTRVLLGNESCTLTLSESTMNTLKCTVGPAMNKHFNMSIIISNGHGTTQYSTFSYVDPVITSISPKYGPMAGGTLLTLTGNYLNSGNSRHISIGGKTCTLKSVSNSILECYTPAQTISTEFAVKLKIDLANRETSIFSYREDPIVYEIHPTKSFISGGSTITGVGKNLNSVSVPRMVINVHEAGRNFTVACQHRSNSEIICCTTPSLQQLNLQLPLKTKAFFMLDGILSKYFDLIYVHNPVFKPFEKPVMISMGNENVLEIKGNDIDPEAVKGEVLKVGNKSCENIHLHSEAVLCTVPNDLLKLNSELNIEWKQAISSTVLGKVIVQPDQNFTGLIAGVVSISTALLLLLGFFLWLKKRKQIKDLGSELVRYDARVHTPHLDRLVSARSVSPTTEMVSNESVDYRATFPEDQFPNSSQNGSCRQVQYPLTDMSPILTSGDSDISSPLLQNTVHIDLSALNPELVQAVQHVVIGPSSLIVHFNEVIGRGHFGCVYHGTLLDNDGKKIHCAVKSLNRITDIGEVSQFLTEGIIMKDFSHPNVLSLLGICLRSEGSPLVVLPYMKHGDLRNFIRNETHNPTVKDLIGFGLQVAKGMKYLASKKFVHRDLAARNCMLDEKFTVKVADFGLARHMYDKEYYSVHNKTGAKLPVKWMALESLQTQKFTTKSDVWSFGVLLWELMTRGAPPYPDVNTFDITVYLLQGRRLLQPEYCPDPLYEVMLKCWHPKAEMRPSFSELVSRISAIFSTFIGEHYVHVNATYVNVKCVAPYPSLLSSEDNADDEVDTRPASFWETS
smiles,measurement,value
CN(C(=O)CN1CCOCC1)c1ccc2sc3c(-c4cccc5c(=O)cc(N6CC7CCC(C6)O7)oc45)cccc3c2c1 [NU5455],% displacement,-1.5%
